Experimental data from ChEMBL document CHEMBL6103543, “Exploring the rhodanine universe: Design and synthesis of fluorescent rhodanine-based derivatives as anti-fibrillar and anti-oligomer agents against α-synuclein and 2N4R tau” (Bioorg Med Chem, 2024).
Activity calls are given as the source filed them. The rule behind the calls is not given here.

Molecular target: T1, Alpha-synuclein (Homo sapiens, UniProt P37840)
Experiment: Binding affinity to alpha-synuclein fibril (unknown origin) assessed as decrease in fluorescence intensity at 1 uM incubated for 60 mins by fluorescence spectrophotometric analysis
Conditions: not given

Row | Compound | Activity
1 | O=C(O)CCN1C(=O)/C(=C/c2c[nH]c3ccccc23)SC1=S | Active; Bathochromic Shift Of 10 Nm Observed

Molecular target: Amyloid-beta precursor protein (Homo sapiens) (UniProt P05067)
Sequence (P05067 whole entry): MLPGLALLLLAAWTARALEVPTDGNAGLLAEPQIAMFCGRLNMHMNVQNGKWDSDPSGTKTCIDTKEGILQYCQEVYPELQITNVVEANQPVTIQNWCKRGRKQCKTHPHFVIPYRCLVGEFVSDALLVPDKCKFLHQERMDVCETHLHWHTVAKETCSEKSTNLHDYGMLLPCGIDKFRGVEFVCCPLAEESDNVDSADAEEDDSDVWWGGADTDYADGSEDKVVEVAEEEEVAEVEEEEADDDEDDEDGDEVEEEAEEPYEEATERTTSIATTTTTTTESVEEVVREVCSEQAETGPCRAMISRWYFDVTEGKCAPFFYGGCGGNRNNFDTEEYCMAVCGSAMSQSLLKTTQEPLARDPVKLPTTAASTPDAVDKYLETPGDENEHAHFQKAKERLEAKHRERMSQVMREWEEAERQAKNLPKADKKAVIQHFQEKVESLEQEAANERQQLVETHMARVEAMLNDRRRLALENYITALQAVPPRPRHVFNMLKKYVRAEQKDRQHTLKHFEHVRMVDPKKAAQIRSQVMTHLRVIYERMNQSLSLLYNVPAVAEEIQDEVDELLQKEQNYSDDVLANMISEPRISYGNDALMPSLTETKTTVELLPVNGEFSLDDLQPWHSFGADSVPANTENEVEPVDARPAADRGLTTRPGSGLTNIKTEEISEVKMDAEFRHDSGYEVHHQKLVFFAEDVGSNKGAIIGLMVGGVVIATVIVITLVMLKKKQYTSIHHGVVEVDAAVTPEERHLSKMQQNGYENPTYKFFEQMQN
Experiment: Inhibition of amyloid beta aggregation derived from alzhemier's disease patient brain assessed as reduction in plaques at 50 uM incubated for 5 days by transmission electron microscopic analysis
Conditions: time 5.0 day

Row | Compound | inhibition
2 | O=C(O)CCN1C(=O)/C(=C/c2c[nH]c3ccccc23)SC1=S | Active
3 | COc1ccc2c(/C=C3\SC(=S)N(CC(=O)O)C3=O)c[nH]c2c1 | Active

Molecular target: Microtubule-associated protein tau (Mus musculus) (UniProt P10637)
Sequence (P10637 whole entry): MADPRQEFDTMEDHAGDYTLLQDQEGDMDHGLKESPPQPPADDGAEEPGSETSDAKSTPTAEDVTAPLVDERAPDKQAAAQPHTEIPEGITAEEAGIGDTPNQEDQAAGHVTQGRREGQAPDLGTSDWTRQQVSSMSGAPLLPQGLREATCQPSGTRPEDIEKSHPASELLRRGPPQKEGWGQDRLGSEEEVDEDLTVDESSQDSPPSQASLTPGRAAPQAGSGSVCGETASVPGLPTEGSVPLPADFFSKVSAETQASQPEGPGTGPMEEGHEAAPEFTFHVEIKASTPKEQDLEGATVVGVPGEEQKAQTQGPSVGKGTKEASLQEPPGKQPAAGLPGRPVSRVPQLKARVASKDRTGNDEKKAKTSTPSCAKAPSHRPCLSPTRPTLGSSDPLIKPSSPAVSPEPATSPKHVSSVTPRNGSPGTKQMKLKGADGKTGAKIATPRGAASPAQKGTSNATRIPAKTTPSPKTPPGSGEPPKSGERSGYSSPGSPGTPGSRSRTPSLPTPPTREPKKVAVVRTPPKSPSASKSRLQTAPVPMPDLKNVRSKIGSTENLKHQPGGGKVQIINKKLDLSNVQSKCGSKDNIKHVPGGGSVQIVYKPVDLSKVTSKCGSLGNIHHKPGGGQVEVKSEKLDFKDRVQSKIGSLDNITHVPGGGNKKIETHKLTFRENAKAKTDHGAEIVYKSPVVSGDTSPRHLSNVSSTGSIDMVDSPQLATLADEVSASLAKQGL
Experiment: Inhibition of Tau aggregation in mouse N2a cells at 15 uM incubated for 5 days by ThS staining based analysis relative to control
Type: cell-based
Conditions: time 5.0 day

Row | Compound | inhibition [%]
4 | O=C1/C(=C/c2ccc(-c3cccc(Cl)c3)o2)SC(=S)N1Cc1nc2ccccc2[nH]1 | 70

Molecular target: Microtubule-associated protein tau (Homo sapiens) (UniProt P10636)
Sequence (P10636 whole entry): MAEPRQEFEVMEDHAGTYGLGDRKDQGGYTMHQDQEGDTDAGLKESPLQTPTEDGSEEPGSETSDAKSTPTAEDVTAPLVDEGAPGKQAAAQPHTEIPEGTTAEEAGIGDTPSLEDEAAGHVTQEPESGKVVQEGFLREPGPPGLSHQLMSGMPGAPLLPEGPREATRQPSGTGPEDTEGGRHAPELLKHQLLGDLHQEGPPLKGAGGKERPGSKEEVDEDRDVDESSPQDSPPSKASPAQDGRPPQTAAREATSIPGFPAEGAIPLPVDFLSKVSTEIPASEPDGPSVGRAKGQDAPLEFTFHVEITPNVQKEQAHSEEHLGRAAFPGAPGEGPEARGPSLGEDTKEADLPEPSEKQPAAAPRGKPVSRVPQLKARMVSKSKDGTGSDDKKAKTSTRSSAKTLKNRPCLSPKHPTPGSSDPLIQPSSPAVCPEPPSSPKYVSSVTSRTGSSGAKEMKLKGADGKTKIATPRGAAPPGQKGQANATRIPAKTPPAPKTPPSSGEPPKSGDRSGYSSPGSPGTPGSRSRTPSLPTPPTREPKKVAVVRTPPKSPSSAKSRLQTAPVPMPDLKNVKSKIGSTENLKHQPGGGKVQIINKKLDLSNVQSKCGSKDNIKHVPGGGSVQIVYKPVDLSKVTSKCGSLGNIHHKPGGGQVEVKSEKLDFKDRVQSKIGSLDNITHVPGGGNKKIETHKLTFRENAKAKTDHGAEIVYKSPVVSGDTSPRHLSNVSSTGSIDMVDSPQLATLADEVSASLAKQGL
Experiment: Inhibition of recombinant Tau 2N4R (unknown origin) aggregation assessed as decrease in fluorescence intensity at 100 uM measured every 5 mins by Thioflavin S fluorescence assay
Conditions: not given

Row | Compound | inhibition
5 | COc1ccc2c(/C=C3\SC(=S)N(CC(=O)O)C3=O)c[nH]c2c1 | Active

Molecular target: T1, Alpha-synuclein
Experiment: (§1) Inhibition of alpha-syn inclusion formation in human M17D cells expressing doxycyclin-inducible alpha-syn-S3K::YFP inclusion-prone fusion protein assessed as reduction in inclusions at 1.25 to 5 uM treated with compound starting from 24 hrs post plating followed by doxycyclin addition at 48 hrs and measured 96 hrs post plating by Incucyte-based analysis
Type: cell-based
Conditions: dose 1.25-5 µM, time 72.0 hrs

Row | Compound | inhibition
6 | O=C(O)c1ccc(N2C(=O)/C(=C/c3ccc4ccccc4n3)SC2=S)cc1O | inactive

Molecular target: T1, Alpha-synuclein
Experiment: Inhibition of alpha-synuclein (unknown origin) oligomer formation at 100 uM incubated for 3 days by Western blot analysis
Conditions: time 3.0 day

Row | Compound | inhibition
7 | O=C(O)CCN1C(=O)/C(=C/c2c[nH]c3ccccc23)SC1=S | Active
8 | COc1ccc2c(/C=C3\SC(=S)N(CC(=O)O)C3=O)c[nH]c2c1 | Active

Molecular target: Microtubule-associated protein tau (Homo sapiens) (UniProt P10636)
Experiment: Binding affinity to recombinant human 2N4R fibril extracted from Escherichia coli assessed as decrease in fluorescence intensity at 1 uM incubated for 60 mins by fluorescence spectrophotometric analysis
Conditions: not given

Row | Compound | Activity
9 | O=C(O)CCN1C(=O)/C(=C/c2c[nH]c3ccccc23)SC1=S | Active; Bathochromic Shift Of 10 Nm Observed

Molecular target: Amyloid-beta precursor protein (Homo sapiens) (UniProt P05067)
Experiment: Inhibition of amyloid beta aggregation derived from alzhemier's disease patient brain assessed as reduction in plaque density at 50 uM incubated for 5 days by transmission electron microscopic analysis
Conditions: time 5.0 day

Row | Compound | inhibition
10 | O=C(O)CCN1C(=O)/C(=C/c2c[nH]c3ccccc23)SC1=S | Active

Molecular target: Microtubule-associated protein tau (Homo sapiens) (UniProt P10636)
Experiment: Inhibition of Tau 0N4R (unknown origin) oligomer formation assessed as reduction in cross linking at 300 uM preincubated with compound followed by Ru(BPY3) addition and measured after 15 sec light irradiation by coomassie blue staining based PICUP assay relative to control
Conditions: not given

Row | Compound | inhibition [%]
11 | O=C(O)CCN1C(=O)/C(=C/c2c[nH]c3ccccc23)SC1=S | 78
12 | COc1ccc2c(/C=C3\SC(=S)N(CC(=O)O)C3=O)c[nH]c2c1 | 92

Molecular target: T1, Alpha-synuclein
Experiment: Binding affinity to alpha-synuclein fibril (unknown origin) assessed as hypsochromic shift at 1 uM incubated for 40 mins by fluorescence spectrophotometric analysis
Conditions: not given

Row | Compound | Activity
13 | COc1ccc2c(/C=C3\SC(=S)N(CC(=O)O)C3=O)c[nH]c2c1 | Active; Slight Hypsochromic Shift Observed Without Any Effect On Fluorescence Intensity

Molecular target: T1, Alpha-synuclein
Experiment: Inhibition of alpha-synuclein (unknown origin) oligomer formation assessed as reduction in cross linking preincubated with compound followed by Ru(BPY3) addition and measured after 1 sec light irradiation by coomassie blue staining based PICUP assay
Conditions: dose 50-200 µM

Row | Compound | inhibition
14 | O=C(O)c1ccc(N2C(=O)/C(=C/c3c[nH]c4ccccc34)SC2=S)cc1 | Dose-dependent-effect
15 | O=C(O)CCN1C(=O)/C(=C/c2c[nH]c3ccccc23)SC1=S | Dose-dependent-effect
16 | COc1ccc2c(/C=C3\SC(=S)N(CC(=O)O)C3=O)c[nH]c2c1 | Dose-dependent-effect
17 | O=C(O)CN1C(=O)/C(=C/c2c[nH]c3ccccc23)SC1=S | Dose-dependent-effect

Molecular target: Microtubule-associated protein tau (Homo sapiens) (UniProt P10636)
Experiment: Binding affinity to recombinant human 2N4R fibril extracted from Escherichia coli assessed as fluorescence quenching at 1 uM incubated for 40 mins by fluorescence spectrophotometric analysis
Conditions: not given

Row | Compound | Activity
18 | COc1ccc2c(/C=C3\SC(=S)N(CC(=O)O)C3=O)c[nH]c2c1 | Active

Molecular target: Amyloid-beta precursor protein (Homo sapiens) (UniProt P05067)
Experiment: Inhibition of HFIP-induced recombinant amyloid beta (1 to 42) (unknown origin) aggregation assessed as decrease in thioflavin T fluorescence intensity at 100 uM measured every 20 mins by Thioflavin T fluorescence assay
Conditions: not given

Row | Compound | inhibition
19 | O=C(O)CCN1C(=O)/C(=C/c2c[nH]c3ccccc23)SC1=S | Active
20 | COc1ccc2c(/C=C3\SC(=S)N(CC(=O)O)C3=O)c[nH]c2c1 | Active

Tested on: not listed separately
Experiment: as §1, with “Cytotoxicity against human” for “Inhibition of alpha-syn inclusion formation in human”, “in cell confluency” for “in inclusions”, “to 40” for “to 5”
Type: toxicity
Conditions: 72 h, dose 1.25-40 µM

Row | Compound | Activity
21 | O=C(O)CCN1C(=O)/C(=C/c2c[nH]c3ccccc23)SC1=S | Non-toxic
22 | COc1ccc2c(/C=C3\SC(=S)N(CC(=O)O)C3=O)c[nH]c2c1 | Non-toxic

Molecular target: T1, Alpha-synuclein
Experiment: as §1, with “to 40” for “to 5”
Type: cell-based
Conditions: dose 1.25-40 µM, time 72.0 hrs

Row | Compound | inhibition
23 | O=C(O)CCN1C(=O)/C(=C/c2c[nH]c3ccccc23)SC1=S | inactive
24 | COc1ccc2c(/C=C3\SC(=S)N(CC(=O)O)C3=O)c[nH]c2c1 | inactive

Molecular target: Microtubule-associated protein tau (Homo sapiens) (UniProt P10636)
Experiment: Inhibition of recombinant Tau 0N4R (unknown origin) aggregation assessed as decrease in fluorescence intensity at 100 uM measured every 5 mins by Thioflavin S fluorescence assay
Conditions: not given

Row | Compound | inhibition
25 | COc1ccc2c(/C=C3\SC(=S)N(CC(=O)O)C3=O)c[nH]c2c1 | Active

Molecular target: Microtubule-associated protein tau (Homo sapiens) (UniProt P10636)
Experiment: Inhibition of Tau 0N4R (unknown origin) oligomer formation assessed as reduction in cross linking at 100 uM preincubated with compound followed by Ru(BPY3) addition and measured after 15 sec light irradiation by coomassie blue staining based PICUP assay relative to control
Conditions: not given

Row | Compound | inhibition [%]
26 | O=C(O)CCN1C(=O)/C(=C/c2c[nH]c3ccccc23)SC1=S | 13
27 | COc1ccc2c(/C=C3\SC(=S)N(CC(=O)O)C3=O)c[nH]c2c1 | 50

Molecular target: Microtubule-associated protein tau (Homo sapiens) (UniProt P10636)
Experiment: Inhibition of Tau 2N4R monomer (unknown origin) fibril formation assessed as decrease in aggregation at 100 uM incubated for 5 days by transmission electron microscopic analysis
Conditions: time 5.0 day

Row | Compound | inhibition
28 | O=C(O)CCN1C(=O)/C(=C/c2c[nH]c3ccccc23)SC1=S | Active
29 | O=C(O)c1ccc(N2C(=O)/C(=C/c3c[nH]c4ccccc34)SC2=S)cc1O | Active; Moderate Effect Observed

Molecular target: T1, Alpha-synuclein
Experiment: Inhibition of recombinant alpha-synuclein (unknown origin) fibril formation assessed as decrease in aggregation at 100 uM incubated for 3 days by transmission electron microscopic analysis
Conditions: time 3.0 day

Row | Compound | inhibition
30 | O=C(O)CCN1C(=O)/C(=C/c2c[nH]c3ccccc23)SC1=S | Active
31 | O=C(O)c1ccc(N2C(=O)/C(=C/c3c[nH]c4ccccc34)SC2=S)cc1O | Active; Moderate Effect Observed

Molecular target: T1, Alpha-synuclein
Experiment: Inhibition of recombinant alpha-synuclein (unknown origin) fibril formation assessed as decrease in thioflavin T fluorescence intensity measured every 20 mins by Thioflavin T fluorescence assay
Conditions: not given

Row | Compound | EC50 [µM]
32 | O=C(O)CCN1C(=O)/C(=C/c2c[nH]c3ccccc23)SC1=S | 13.1
33 | COc1ccc2c(/C=C3\SC(=S)N(CC(=O)O)C3=O)c[nH]c2c1 | 8.66

Molecular target: Microtubule-associated protein tau (Homo sapiens) (UniProt P10636)
Experiment: Inhibition of recombinant phosphorylated Tau 1N4R (unknown origin) aggregation assessed as decrease in fluorescence intensity at 100 uM measured every 5 mins by Thioflavin S fluorescence assay
Conditions: not given

Row | Compound | inhibition
34 | COc1ccc2c(/C=C3\SC(=S)N(CC(=O)O)C3=O)c[nH]c2c1 | Active

Molecular target: T1, Alpha-synuclein
Experiment: Inhibition of recombinant alpha-synuclein (unknown origin) fibril formation assessed as thioflavin T fluorescence intensity at 100 uM measured every 20 mins by Thioflavin T fluorescence assay (reference value: 100 %)
Conditions: not given

Row | Compound | Flu intensity [%]
35 | O=C(O)c1ccc(N2C(=O)/C(=C/c3c[nH]c4ccccc34)SC2=S)cc1 | 14.9
36 | O=C(O)CCN1C(=O)/C(=C/c2c[nH]c3ccccc23)SC1=S | 1.9
37 | COc1ccc2c(/C=C3\SC(=S)N(CC(=O)O)C3=O)c[nH]c2c1 | 1.9
38 | O=C(O)CN1C(=O)/C(=C/c2c[nH]c3ccccc23)SC1=S | 10.1
39 | O=C(O)c1ccc(N2C(=O)/C(=C/c3ccc4ccccc4n3)SC2=S)cc1O | > 100
40 | O=C(O)c1ccc(N2C(=O)/C(=C/c3c[nH]c4ccccc34)SC2=S)cc1O | 8.9

Molecular target: T1, Alpha-synuclein
Experiment: Inhibition of alpha-synuclein (unknown origin) oligomer formation assessed as reduction in cross linking at 100 uM preincubated with compound followed by Ru(BPY3) addition and measured after 1 sec light irradiation by coomassie blue staining based PICUP assay
Conditions: not given

Row | Compound | inhibition
41 | O=C(O)c1ccc(N2C(=O)/C(=C/c3c[nH]c4ccccc34)SC2=S)cc1 | Active
42 | O=C(O)CCN1C(=O)/C(=C/c2c[nH]c3ccccc23)SC1=S | Active
43 | COc1ccc2c(/C=C3\SC(=S)N(CC(=O)O)C3=O)c[nH]c2c1 | Active
44 | O=C(O)CN1C(=O)/C(=C/c2c[nH]c3ccccc23)SC1=S | Active
45 | O=C(O)c1ccc(N2C(=O)/C(=C/c3ccc4ccccc4n3)SC2=S)cc1O | inactive
46 | O=C(O)c1ccc(N2C(=O)/C(=C/c3c[nH]c4ccccc34)SC2=S)cc1O | inactive

Tested on: not listed separately
Experiment: as §1, with “Cytotoxicity against” for “Inhibition of alpha-syn inclusion formation in”, “cell confluency” for “inclusions”
Type: toxicity
Conditions: 72 h, dose 1.25-5 µM

Row | Compound | Activity
47 | O=C(O)c1ccc(N2C(=O)/C(=C/c3ccc4ccccc4n3)SC2=S)cc1O | Non-toxic
48 | O=C(O)c1ccc(N2C(=O)/C(=C/c3c[nH]c4ccccc34)SC2=S)cc1O | Non-toxic

Molecular target: T1, Alpha-synuclein
Experiment: Inhibition of alpha-synuclein (unknown origin) oligomer formation assessed as reduction in cross linking at 50 uM preincubated with compound followed by Ru(BPY3) addition and measured after 1 sec light irradiation by coomassie blue staining based PICUP assay relative to control
Conditions: not given

Row | Compound | inhibition [%]
49 | COc1ccc2c(/C=C3\SC(=S)N(CC(=O)O)C3=O)c[nH]c2c1 | 81

Molecular target: Microtubule-associated protein tau (Homo sapiens) (UniProt P10636)
Experiment: Inhibition of Tau 0N4R (unknown origin) oligomer formation assessed as reduction in cross linking at 200 uM preincubated with compound followed by Ru(BPY3) addition and measured after 15 sec light irradiation by coomassie blue staining based PICUP assay relative to control
Conditions: not given

Row | Compound | inhibition [%]
50 | O=C(O)CCN1C(=O)/C(=C/c2c[nH]c3ccccc23)SC1=S | 25
51 | COc1ccc2c(/C=C3\SC(=S)N(CC(=O)O)C3=O)c[nH]c2c1 | 70

Molecular target: T1, Alpha-synuclein
Experiment: as §1, with “at” for “at 1.25 to”
Type: cell-based
Conditions: time 72.0 hrs

Row | Compound | inhibition
52 | O=C(O)c1ccc(N2C(=O)/C(=C/c3c[nH]c4ccccc34)SC2=S)cc1O | Active

Molecular target: T1, Alpha-synuclein
Experiment: Inhibition of alpha-synuclein (unknown origin) oligomer formation assessed as reduction in cross linking at 100 uM preincubated with compound followed by Ru(BPY3) addition and measured after 1 sec light irradiation by coomassie blue staining based PICUP assay relative to control
Conditions: not given

Row | Compound | inhibition [%]
53 | COc1ccc2c(/C=C3\SC(=S)N(CC(=O)O)C3=O)c[nH]c2c1 | 100

Molecular target: Microtubule-associated protein tau (Homo sapiens) (UniProt P10636)
Experiment: Inhibition of Tau 0N4R (unknown origin) oligomer formation assessed as reduction in cross linking at 50 uM preincubated with compound followed by Ru(BPY3) addition and measured after 15 sec light irradiation by coomassie blue staining based PICUP assay relative to control
Conditions: not given

Row | Compound | inhibition [%]
54 | O=C(O)CCN1C(=O)/C(=C/c2c[nH]c3ccccc23)SC1=S | 13
55 | COc1ccc2c(/C=C3\SC(=S)N(CC(=O)O)C3=O)c[nH]c2c1 | 18
